# Columns and labels:
# SK-MEL-5 = test: SRB anti-cancer assay, Melanoma; format: cell-based, human; conditions: SK-MEL-5 (Melanoma), 48 h; for CC50: read-out: LC50 (the source's name)
# DU-145 = test: SRB anti-cancer assay, Prostate Cancer; format: cell-based, human; conditions: DU-145 (Prostate Cancer), 48 h; for CC50: read-out: LC50 (the source's name)
# MCF7 = test: SRB anti-cancer assay, Breast Cancer; format: cell-based, human; conditions: 48 h; for CC50: read-out: LC50 (the source's name)
# A549/ATCC = format: cell-based, human; conditions: A549/ATCC (Non-Small Cell Lung Cancer), 48 h; for CC50: read-out: LC50 (the source's name)
# EKVX = format: cell-based, human; conditions: EKVX (Non-Small Cell Lung Cancer), 48 h; for CC50: read-out: LC50 (the source's name)
# A498 = test: SRB anti-cancer assay, Renal Cancer; format: cell-based, human; conditions: 48 h; for CC50: read-out: LC50 (the source's name)
# OVCAR-5 = test: SRB anti-cancer assay, Ovarian Cancer; format: cell-based, human; conditions: OVCAR-5 (Ovarian Cancer), 48 h; for CC50: read-out: LC50 (the source's name)
# HT29 = test: SRB anti-cancer assay, Colon Cancer; format: cell-based, human; conditions: 48 h; for CC50: read-out: LC50 (the source's name)
# SK-OV-3 = test: SRB anti-cancer assay, Ovarian Cancer; format: cell-based, human; conditions: SK-OV-3 (Ovarian Cancer), 48 h; for CC50: read-out: LC50 (the source's name)
# PC-3 = test: SRB anti-cancer assay, Prostate Cancer; format: cell-based, human; conditions: PC-3 (Prostate Cancer), 48 h
# SNB-75 = test: SRB anti-cancer assay, CNS Cancer; format: cell-based, human; conditions: SNB-75 (CNS Cancer), 48 h
# OVCAR-4 = test: SRB anti-cancer assay, Ovarian Cancer; format: cell-based, human; conditions: OVCAR-4 (Ovarian Cancer), 48 h; for CC50: read-out: LC50 (the source's name)
# NCI-H226 = format: cell-based, human; conditions: NCI-H226 (Non-Small Cell Lung Cancer), 48 h; for CC50: read-out: LC50 (the source's name)
# TK-10 = test: SRB anti-cancer assay, Renal Cancer; format: cell-based, human; conditions: TK-10 (Renal Cancer), 48 h; for CC50: read-out: LC50 (the source's name)
# SNB-19 = test: SRB anti-cancer assay, CNS Cancer; format: cell-based, human; conditions: SNB-19 (CNS Cancer), 48 h; for CC50: read-out: LC50 (the source's name)
# UACC-257 = test: SRB anti-cancer assay, Melanoma; format: cell-based, human; conditions: UACC-257 (Melanoma), 48 h; for CC50: read-out: LC50 (the source's name)
# SK-MEL-2 = test: SRB anti-cancer assay, Melanoma; format: cell-based, human; conditions: SK-MEL-2 (Melanoma), 48 h
# ACHN = test: SRB anti-cancer assay, Renal Cancer; format: cell-based, human; conditions: 48 h; for CC50: read-out: LC50 (the source's name)
# [1] = test system: HBV ribonucleic acids (RNA); test: HBV RNA levels in 2.2.15 cells (blot hybridization); format: cell-based, Hepatitis B virus; conditions: 10 μM, day 9, 2.2.15 cells
# Experimental: Anti-HBV activity and the toxicity against confluent 2.2.15 cells were determined by the previously described procedure (Korba, B. E., et al. Antivir. Res., 19:55-70, 1992; Korba, B. E., et al. Antivir. Res., 15:217-228, 1991). Briefly, confluent cultures of HBV transfected 2.2.15 cells were maintained on either 96-well or 24-well flat-bottomed tissue culture plates in RPMI 1640 medium with 2% fetal bovine serum (FBS). The cells were treated with test compounds daily for nine consecutive days. The culture media were harvested on day 9 to quantify the amount of virion DNA. On day 10, the cells were lysed to quantify the amount of intracellular HBV replicative intermediates (RI). The quantification of virion DNA and the HBV RI were done by blot hybridization methods (Korba, B. E., et al. Antivir. Res., 19:55-70, 1992; Korba, B. E., et al. Antivir. Res., 15:217-228, 1991). Cellular toxicity against separate cultures of confluent 2.2.15 cells was measured after treatment with the compounds for nine days under identical culture conditions as those used for the antiviral assay (Korba, B. E., et al. Antivir. Res., 19:55-70, 1992). Uptake of neutral red dye by treated cells was compared with dye uptake by untreated control cells (Korba, B. E., et al. Antivir. Res., 19:55-70, 1992).
# These compounds were evaluated for their ability to inhibit viral RNA synthesis in 2.2.15 cells. Since HBV uses host cellular RNA polymerase II during the transcription of viral RNA from the covalently closed circular HBV DNA during its replication, any effect on the synthesis of viral RNA by these compounds would mean interference with the cellular RNA polymerase which could lead to unacceptable cellular toxicity.
# RXF 393 = test: SRB anti-cancer assay, Renal Cancer; format: cell-based, human; conditions: RXF 393 (Renal Cancer), 48 h; for CC50: read-out: LC50 (the source's name)
# [2] = test system: HBV proteins (HBsAg, HBcAg, HBeAg); test: HBV protein levels in 2.2.15 cells (semi-quantitative EIA); format: cell-based, Hepatitis B virus; conditions: 10 μM, day 9, 2.2.15 cells
# BT-549 = test: SRB anti-cancer assay, Breast Cancer; format: cell-based, human; conditions: BT-549 (Breast Cancer), 48 h; for CC50: read-out: LC50 (the source's name)
structure (smiles),measurement,setting,value
"N=c1nc(N)c2ncn([C@@H]3O[C@H](COC(=O)c4ccccc4)[C@@H](OC(=O)c4ccccc4)[C@H]3OC(=O)c3ccccc3)c2c(N)n1 [4,8-Diamino-6H-6-imino-1(2′,3′,5′-tri-O-benzoyl-β-D-ribofuranosyl)imidazo[4,5-e][1,3]diazepine]",GI50,SK-MEL-5,1.36 µM
same,TGI,SK-MEL-5,2.64 µM
same,CC50,SK-MEL-5,5.16 µM
same,GI50,DU-145,8.79 µM
same,TGI,DU-145,21.8 µM
same,CC50,DU-145,49.1 µM
same,GI50,MCF7,1.47 µM
same,TGI,MCF7,3.12 µM
same,CC50,MCF7,6.61 µM
same,GI50,A549/ATCC,6.44 µM
same,TGI,A549/ATCC,30 µM
same,CC50,A549/ATCC,> 100 µM
same,GI50,EKVX,10.9 µM
same,TGI,EKVX,29.6 µM
same,CC50,EKVX,80.4 µM
same,GI50,A498,20 µM
same,TGI,A498,37.8 µM
same,CC50,A498,71.8 µM
same,GI50,OVCAR-5,15.7 µM
same,TGI,OVCAR-5,30.1 µM
same,CC50,OVCAR-5,57.7 µM
same,GI50,HT29,2.58 µM
same,TGI,HT29,10.3 µM
same,CC50,HT29,42.3 µM
same,GI50,SK-OV-3,16.3 µM
same,TGI,SK-OV-3,30.5 µM
same,CC50,SK-OV-3,57 µM
same,GI50,PC-3,4.46 µM
same,TGI,PC-3,16.6 µM
same,GI50,SNB-75,12.3 µM
same,LC50 (concentration killing 50% of cells),SNB-75,50.4 µM
same,TGI,SNB-75,24.9 µM
same,GI50,OVCAR-4,13.8 µM
same,TGI,OVCAR-4,28 µM
same,CC50,OVCAR-4,57 µM
same,GI50,NCI-H226,6.89 µM
same,TGI,NCI-H226,25.1 µM
same,CC50,NCI-H226,72.4 µM
same,GI50,TK-10,21.3 µM
same,TGI,TK-10,82.2 µM
same,CC50,TK-10,> 100 µM
same,GI50,SNB-19,14.7 µM
same,TGI,SNB-19,31.6 µM
same,CC50,SNB-19,68.2 µM
same,GI50,UACC-257,4.51 µM
same,TGI,UACC-257,18.3 µM
same,CC50,UACC-257,73.5 µM
same,GI50,SK-MEL-2,2.6 µM
same,LC50,SK-MEL-2,26.2 µM
same,TGI,SK-MEL-2,6.87 µM
same,GI50,ACHN,10.9 µM
same,TGI,ACHN,23.5 µM
same,CC50,ACHN,50.7 µM
"N=c1[nH]c(=O)c2ncn([C@@H]3O[C@H](CO)[C@@H](O)[C@H]3O)c2c(=O)[nH]1 [Compound 14-1, 6-Imino-6H-1-β-D-ribofuranosyl-4,5,7,8-tetrahydroimidazo[4,5-e][1,3]diazepine-4,8-dione]",GI50,DU-145,> 100 µM
same,TGI,DU-145,>100 µM
same,CC50,DU-145,> 100 µM
same,"2.1 Kb RNA, percentage of control",[1],96 ± 7%
same,"3.6 Kb RNA, percentage of control",[1],89 ± 9%
same,GI50,A549/ATCC,> 100 µM
same,TGI,A549/ATCC,>100 µM
same,CC50,A549/ATCC,> 100 µM
same,GI50,EKVX,> 100 µM
same,TGI,EKVX,>100 µM
same,CC50,EKVX,> 100 µM
same,TGI,RXF 393,>100 µM
same,CC50,RXF 393,> 100 µM
same,GI50,A498,> 100 µM
same,TGI,A498,>100 µM
same,CC50,A498,> 100 µM
same,GI50,OVCAR-5,> 100 µM
same,TGI,OVCAR-5,>100 µM
same,CC50,OVCAR-5,> 100 µM
same,"HBcAg, percentage of control",[2],75 ± 4%
same,"HBeAg, percentage of control",[2],50 ± 5 %
same,"HBsAg, percentage of control",[2],67 ± 6%
same,GI50,SK-OV-3,> 100 µM
same,TGI,SK-OV-3,>100 µM
same,CC50,SK-OV-3,> 100 µM
same,LC50 (concentration killing 50% of cells),SNB-75,> 100 µM
same,TGI,SNB-75,>100 µM
same,GI50,OVCAR-4,> 100 µM
same,TGI,OVCAR-4,>100 µM
same,CC50,OVCAR-4,> 100 µM
same,GI50,NCI-H226,> 100 µM
same,TGI,NCI-H226,>100 µM
same,CC50,NCI-H226,> 100 µM
same,GI50,BT-549,> 100 µM
same,TGI,BT-549,>100 µM
same,CC50,BT-549,> 100 µM
same,GI50,SNB-19,> 100 µM
same,TGI,SNB-19,>100 µM
same,CC50,SNB-19,> 100 µM
same,GI50,UACC-257,> 100 µM
same,TGI,UACC-257,>100 µM
same,CC50,UACC-257,> 100 µM
same,GI50,ACHN,> 100 µM
same,TGI,ACHN,>100 µM
same,CC50,ACHN,> 100 µM
"N=c1nc(N)c2ncn([C@@H]3O[C@H](CO)[C@@H](O)[C@H]3O)c2c(N)n1 [Compound 14-2, 4,8-Diamino-6H-6-imino-1-β-D-ribofuranosylimidazo[4,5-e][1,3]diazepine]",GI50,SK-MEL-5,10.8 µM
same,TGI,SK-MEL-5,23.5 µM
same,CC50,SK-MEL-5,50.9 µM
same,GI50,DU-145,15 µM
same,TGI,DU-145,30.2 µM
same,CC50,DU-145,60.7 µM
same,GI50,MCF7,5.81 µM
same,TGI,MCF7,22.3 µM
same,CC50,MCF7,63.4 µM
same,"2.1 Kb RNA, percentage of control",[1],96 ± 8%
same,"3.6 Kb RNA, percentage of control",[1],103 ± 9%
same,GI50,A549/ATCC,22.3 µM
same,TGI,A549/ATCC,58.4 µM
same,CC50,A549/ATCC,> 100 µM
same,GI50,EKVX,14.3 µM
same,TGI,EKVX,27.3 µM
same,CC50,EKVX,52.3 µM
same,GI50,RXF 393,7.51 µM
same,TGI,RXF 393,25.6 µM
same,CC50,RXF 393,74.2 µM
same,GI50,A498,23.1 µM
same,TGI,A498,74.7 µM
same,CC50,A498,> 100 µM
same,GI50,OVCAR-5,16.8 µM
same,TGI,OVCAR-5,32.7 µM
same,CC50,OVCAR-5,64 µM
same,GI50,HT29,10.4 µM
same,TGI,HT29,35.7 µM
same,CC50,HT29,> 100 µM
same,"HBcAg, percentage of control",[2],109 ± 6%
same,"HBeAg, percentage of control",[2],8 ± 3 %
same,"HBsAg, percentage of control",[2],108 ± 18%
same,GI50,SK-OV-3,51.8 µM
same,TGI,SK-OV-3,>100 µM
same,CC50,SK-OV-3,> 100 µM
same,GI50,PC-3,16.6 µM
same,TGI,PC-3,44.5 µM
same,CC50,PC-3; read-out: LC50 (the source's name),> 100 µM
same,GI50,SNB-75,27.9 µM
same,LC50 (concentration killing 50% of cells),SNB-75,> 100 µM
same,TGI,SNB-75,99.1 µM
same,GI50,OVCAR-4,16.7 µM
same,TGI,OVCAR-4,35.6 µM
same,CC50,OVCAR-4,76.1 µM
same,GI50,NCI-H226,33.2 µM
same,TGI,NCI-H226,>100 µM
same,CC50,NCI-H226,> 100 µM
same,GI50,BT-549,15.6 µM
same,TGI,BT-549,32.2 µM
same,CC50,BT-549,66.4 µM
same,GI50,TK-10,15.1 µM
same,TGI,TK-10,31.2 µM
same,CC50,TK-10,64.6 µM
same,GI50,SNB-19,17.1 µM
same,TGI,SNB-19,51.5 µM
same,CC50,SNB-19,> 100 µM
same,GI50,UACC-257,12.7 µM
same,TGI,UACC-257,25.8 µM
same,CC50,UACC-257,52.3 µM
same,GI50,SK-MEL-2,15.4 µM
same,LC50,SK-MEL-2,76.9 µM
same,TGI,SK-MEL-2,34.5 µM
same,GI50,ACHN,12.3 µM
same,TGI,ACHN,27.2 µM
same,CC50,ACHN,59.9 µM

# Reference: patent US6677310B1, “Ring-expanded nucleosides and nucleotides” (Nabi, priority 1999, dated 2004)
